In patent publication US20250163104A1, “MACROCYCLIC IMMUNOMODULATORS” (priority 2021, published 2025):
pIC50: −log10 of the molar value. Where a SMILES comes first, the peptide text is derived from it. Bridges are numbered along the chain shown (N, C = ends). [ ]: non-standard residue; d: D form. The star is where a group is joined. ξ: configuration not given here. Ala(1H-tetrazol-5-yl) = N[C@@H](Cc1nnn[nH]1)C(=O)O; Phe(4-COOH) = N[C@@H](Cc1ccc(C(=O)O)cc1)C(=O)O; Bip = N[C@@H](Cc1ccc(-c2ccccc2)cc1)C(=O)O; Phe(4-NH2) = Nc1ccc(C[C@H](N)C(=O)O)cc1; Phe(3-Me) = Cc1cccc(C[C@H](N)C(=O)O)c1; Ala(cPent) = N[C@@H](CC1CCCC1)C(=O)O; hArg = N=C(N)NCCCC[C@H](N)C(=O)O; 4Pal = N[C@@H](Cc1ccncc1)C(=O)O; Cha = N[C@@H](CC1CCCCC1)C(=O)O; Cit = NC(=O)NCCC[C@H](N)C(=O)O; Carboxymethyl = O=C(O)C*; Orn = NCCC[C@H](N)C(=O)O; Dab = NCC[C@H](N)C(=O)O; Nva = CCC[C@H](N)C(=O)O; Dap = NC[C@H](N)C(=O)O; ξPra = C#CCC(N)C(=O)O; Propargyl = C#CC*

Molecular target: T1, human PD-1 / PD-L1-Ig binding on Jurkat cell line over-expressing human PD-1 (Jurkat-PD-1) (Homo sapiens, UniProt Q15116)
T1 construct: expressed in transfected cells; host or cells: Jurkat
T1 sequence (Q15116 25-288): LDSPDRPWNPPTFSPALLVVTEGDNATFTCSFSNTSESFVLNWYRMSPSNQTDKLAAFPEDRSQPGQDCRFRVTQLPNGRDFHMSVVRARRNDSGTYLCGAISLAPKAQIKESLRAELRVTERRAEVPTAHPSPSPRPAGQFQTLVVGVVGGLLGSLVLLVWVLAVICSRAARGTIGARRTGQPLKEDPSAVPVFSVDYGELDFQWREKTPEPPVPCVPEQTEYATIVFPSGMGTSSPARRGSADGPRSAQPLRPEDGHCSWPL
Test: Jurkat-PD-1 Cell Binding High-Content Screening Assay (CBA)
Type: cell-based
Settings: Jurkat-PD-1 cells, PE-labeled PD-L1-Ig 20 nM final; read-out: Jurkat HPD1_PDL1 IC50
Procedure: Example 3. Jurkat-PD-1 Cell Binding High-Content Screening Assay (CBA)
Jurkat-PD-1 Cell Binding High-Content Screening Assay (CBA). Phycoerythrin (PE) was covalently linked to the Ig epitope tag of human PD-L1-Ig and fluorescently-labeled PD-L1-Ig was used for binding studies with a Jurkat cell line over-expressing human PD-1 (Jurkat-PD-1). Briefly, 8×10^3 Jurkat-hPD-1 cells were seeded into 384 well plates in 20 μl of DMEM supplemented with 10% fetal calf serum. 100 nL of compound was added to cells followed by incubation at 37° C. for 2 h. Then, 5 μl of PE-labeled PD-L1-Ig (20 nM final), diluted in DMEM supplemented with 10% fetal calf serum. After 1 hour incubation, cells were fixed with 4% paraformaldehyde in dPBS containing 10 μg/ml Hoechst 33342 and then washed 3x in 100 μl dPBS. Data was collected and processed using a Cell Insight NXT High Content Imager and associated software.

Row | Structure (SMILES) | pIC50
1 | C#CCC(NC(=O)[C@H](CCCCN)NC(=O)[C@@H]1CSCC(=O)N[C@@H](Cc2ccncc2)C(=O)N[C@@H](Cc2ccc(OCC(=O)O)cc2)C(=O)N[C@@H](CC(=O)O)C(=O)N[C@@H](Cc2c[nH]c3ccccc23)C(=O)N[C@@H](C(C)C)C(=O)N[C@@H](Cc2ccc(-c3ccccc3)cc2)C(=O)N[C@@H]([C@@H](C)CC)C(=O)N[C@@H](CCCN)C(=O)N[C@H](CC(C)C)C(=O)N[C@@H](CCN)C(=O)N[C@@H](CC(C)C)C(=O)N[C@@H](C(C)C)C(=O)N[C@@H]([C@@H](C)O)C(=O)N1)C(N)=O (stereo partly drawn) [Compound 1761] ({CH2CO}-[4Pal]Y(Carboxymethyl)DWV[Bip]I[Orn][dL][Dab]LVTCK[ξPra]-NH2; thioether N-14) | 7.86
2 | Cc1cccc(C[C@@H]2NC(=O)[C@H](CC(=O)O)NC(=O)[C@H](Cc3ccc(C(=O)O)cc3)NC(=O)[C@H](Cc3ccc(OCC(=O)O)cc3)NC(=O)CSC[C@@H](C(N)=O)NC(=O)[C@H]([C@@H](C)O)NC(=O)[C@H](C(C)C)NC(=O)[C@H](CC(C)C)NC(=O)[C@H](CCN)NC(=O)[C@@H](CC(C)C)NC(=O)[C@H](CCCN)NC(=O)[C@H](CCCNC(N)=O)NC(=O)[C@H](Cc3ccc(-c4ccccc4)cc3)NC(=O)[C@H](C(C)C)NC2=O)c1 [Compound 1557] ({CH2CO}-Y(Carboxymethyl)[Phe(4-COOH)]D[Phe(3-Me)]V[Bip][Cit][Orn][dL][Dab]LVTC-NH2; thioether N-14) | 7.42
3 | CCC(C)[C@@H]1NC(=O)[C@H](Cc2ccc(-c3ccccc3)cc2)NC(=O)[C@H](C(C)C)NC(=O)[C@H](Cc2c[nH]c3ccccc23)NC(=O)[C@H](CC(=O)O)NC(=O)[C@H](Cc2ccc(-c3cccc(C(=O)O)c3)cc2)NC(=O)[C@H](Cc2ccc(OCC(=O)O)cc2)NC(=O)CSC[C@@H](C(=O)N[C@@H](C)C(N)=O)NC(=O)[C@H]([C@@H](C)O)NC(=O)[C@H](C(C)C)NC(=O)[C@H](CC2CCCCC2)NC(=O)[C@H](CCN)NC(=O)[C@@H](CC(C)C)NC(=O)[C@H](CCCN)NC1=O (some centres unmarked) [Compound 2220] | 7.46
4 | CC(C)C[C@@H]1NC(=O)[C@H](Cc2c[nH]c3ccccc23)NC(=O)[C@H](CC(=O)O)NC(=O)[C@H](Cc2ccc(O)cc2)NC(=O)[C@H](Cc2ccccc2)NC(=O)CSC[C@@H](C(=O)N[C@@H](C)C(N)=O)NC(=O)[C@H](CO)NC(=O)[C@H](C(C)C)NC(=O)[C@H](CC(C)C)NC(=O)[C@H](CCN)NC(=O)[C@@H](C)NC(=O)[C@H](CN)NC(=O)[C@H](C(C)C)NC(=O)[C@H](Cc2ccc(-c3ccccc3)cc2)NC1=O [Compound 1079] ({CH2CO}-FYDWL[Bip]V[Dap][dA][Dab]LVSCA-NH2; thioether N-14) | 7.53
5 | CC(C)[C@@H]1NC(=O)[C@H](Cc2c[nH]c3ccccc23)NC(=O)[C@H](CC(=O)O)NC(=O)[C@H](Cc2ccc(OCC(=O)O)cc2)NC(=O)[C@H](CCCCNC(=N)N)NC(=O)CSC[C@@H](C(=O)N[C@@H](CC(N)=O)C(N)=O)NC(=O)[C@H](CO)NC(=O)[C@H](C(C)C)NC(=O)[C@H](CC2CCCCC2)NC(=O)[C@H](CCN)NC(=O)[C@@H](C)NC(=O)[C@H](CCCN)NC(=O)[C@H](CC(N)=O)NC(=O)[C@H](Cc2ccc(-c3ccccc3)cc2)NC1=O [Compound 2554] ({CH2CO}-[hArg]Y(Carboxymethyl)DWV[Bip]N[Orn][dA][Dab][Cha]VSCN-NH2; thioether N-14) | 7.77
6 | CCCC[C@@H]1NC(=O)[C@H](Cc2ccc(-c3ccccc3)cc2)NC(=O)[C@H](C(C)C)NC(=O)[C@H](Cc2cccc(C)c2)NC(=O)[C@H](CC(=O)O)NC(=O)[C@H](Cc2ccc(C(=O)O)cc2)NC(=O)[C@H](Cc2ccncc2)NC(=O)CSC[C@@H](C(=O)N[C@@H](C)C(N)=O)NC(=O)[C@H]([C@@H](C)O)NC(=O)[C@H](C(C)C)NC(=O)[C@H](CC2CCCCC2)NC(=O)[C@H](CCN)NC(=O)[C@@H](CC(C)C)NC(=O)[C@H](CCCN)NC1=O [Compound 1613] | 7.68
7 | CC(C)C[C@@H]1NC(=O)[C@H](CCN)NC(=O)[C@@H](CC(C)C)NC(=O)[C@H](CC(C)C)NC(=O)[C@H](C(C)C)NC(=O)[C@H](Cc2ccc(-c3ccccc3)cc2)NC(=O)[C@H](C(C)C)NC(=O)[C@H](Cc2c[nH]c3ccccc23)NC(=O)[C@H](CC(=O)O)NC(=O)[C@H](Cc2ccc(O)cc2)NC(=O)[C@H](CC(N)=O)NC(=O)CSC[C@@H](C(=O)N[C@@H](C)C(N)=O)NC(=O)[C@H]([C@@H](C)O)NC(=O)[C@H](C(C)C)NC1=O [Compound 1037] ({CH2CO}-NYDWV[Bip]VL[dL][Dab]LVTCA-NH2; thioether N-14) | 7.27
8 | C#CCOc1ccc(C[C@@H]2NC(=O)[C@H](CCN)NC(=O)CSC[C@@H](C(=O)N[C@@H](CCN)C(N)=O)NC(=O)[C@H](CCC(=O)O)NC(=O)[C@H](C(C)C)NC(=O)[C@H](CC3CCCCC3)NC(=O)[C@H](CCN)NC(=O)[C@@H](CC(C)C)NC(=O)[C@H](CCCN)NC(=O)[C@H](Cc3ccc(OCC(=O)O)cc3)NC(=O)[C@H](Cc3ccc(-c4ccccc4)cc3)NC(=O)[C@H](Cc3ccc(OCC(=O)O)cc3)NC(=O)[C@H](Cc3cccc(C)c3)NC(=O)[C@H](CC(=O)O)NC2=O)cc1 [Compound 1820] ({CH2CO}-[Dab]Y(Propargyl)D[Phe(3-Me)]Y(Carboxymethyl)[Bip]Y(Carboxymethyl)[Orn][dL][Dab][Cha]VEC[Dab]-NH2; thioether N-14) | 7.76
9 | Cc1cccc(C[C@@H]2NC(=O)[C@H](Cc3nn[nH]n3)NC(=O)[C@H](Cc3ccc(OCC(=O)O)cc3)NC(=O)[C@H](CN)NC(=O)CSC[C@@H](C(=O)NCC(N)=O)NC(=O)[C@H](CO)NC(=O)[C@H](C(C)C)NC(=O)[C@H](CC(C)C)NC(=O)[C@H](CC(N)=O)NC(=O)[C@@H](CC(C)C)NC(=O)[C@H](CN)NC(=O)[C@H](C(C)C)NC(=O)[C@H](Cc3ccc(-c4ccccc4)cc3)NC(=O)[C@H](CC(C)C)NC2=O)c1 [Compound 1273] ({CH2CO}-[Dap]Y(Carboxymethyl)[Ala(1H-tetrazol-5-yl)][Phe(3-Me)]L[Bip]V[Dap][dL]NLVSCG-NH2; thioether N-14) | 7.26

The next molecules have a higher pIC50 than those just listed; values first:

Row | pIC50 | Structure (SMILES)
10 | 7.96 | CC(C)C[C@H]1NC(=O)[C@H](CCCN)NC(=O)[C@H](CCCNC(N)=O)NC(=O)[C@H](Cc2ccc(-c3ccccc3)cc2)NC(=O)[C@H](CC2CCCC2)NC(=O)[C@H](Cc2c[nH]c3ccccc23)NC(=O)[C@H](CC(=O)O)NC(=O)[C@H](Cc2ccc(OCC(=O)O)cc2)NC(=O)[C@H](CN)NC(=O)CSC[C@@H](C(=O)N[C@@H](C)C(N)=O)NC(=O)[C@H]([C@@H](C)O)NC(=O)[C@H](C(C)C)NC(=O)[C@H](CC2CCCCC2)NC(=O)[C@H](CCN)NC1=O [Compound 1353] ({CH2CO}-[Dap]Y(Carboxymethyl)DW[Ala(cPent)][Bip][Cit][Orn][dL][Dab][Cha]VTCA-NH2; thioether N-14)
11 | 8.17 | CC(C)C[C@H]1NC(=O)[C@H](CCCN)NC(=O)[C@H](CCCNC(N)=O)NC(=O)[C@H](Cc2ccc(-c3ccccc3)cc2)NC(=O)[C@H](C(C)C)NC(=O)[C@H](Cc2c[nH]c3ccccc23)NC(=O)[C@H](CC(=O)O)NC(=O)[C@H](Cc2ccc(N)cc2)NC(=O)[C@H](CN)NC(=O)CSC[C@@H](C(=O)N[C@@H](C)C(N)=O)NC(=O)[C@H]([C@@H](C)O)NC(=O)[C@H](C(C)C)NC(=O)[C@H](CC2CCCCC2)NC(=O)[C@H](CCN)NC1=O [Compound 2105] ({CH2CO}-[Dap][Phe(4-NH2)]DWV[Bip][Cit][Orn][dL][Dab][Cha]VTCA-NH2; thioether N-14)
12 | 8.29 | Cc1cccc(C[C@@H]2NC(=O)[C@H](CC(=O)O)NC(=O)[C@H](Cc3ccc(OCC(=O)O)cc3)NC(=O)[C@H](Cc3ccc(OCC(=O)O)cc3)NC(=O)CSC[C@@H](C(=O)N[C@@H](C)C(N)=O)NC(=O)[C@H]([C@@H](C)O)NC(=O)[C@H](C(C)C)NC(=O)[C@H](CC(C)C)NC(=O)[C@H](CCN)NC(=O)[C@@H](CC(C)C)NC(=O)[C@H](CCCN)NC(=O)[C@H](C(C)C)NC(=O)[C@H](Cc3ccc(-c4ccccc4)cc3)NC(=O)[C@H](C(C)C)NC2=O)c1 [Compound 1220] ({CH2CO}-Y(Carboxymethyl)Y(Carboxymethyl)D[Phe(3-Me)]V[Bip]V[Orn][dL][Dab]LVTCA-NH2; thioether N-14)
13 | 8.44 | C#CCOc1ccc(C[C@@H]2NC(=O)[C@H](Cc3cccc(C)c3)NC(=O)[C@H](CC(=O)O)NC(=O)[C@H](Cc3ccc(C(=O)O)cc3)NC(=O)[C@H](CCC)NC(=O)CSC[C@@H](C(=O)N[C@@H](CCN)C(N)=O)NC(=O)[C@H](CCC(=O)O)NC(=O)[C@H](C(C)C)NC(=O)[C@H](CC3CCCCC3)NC(=O)[C@H](CCN)NC(=O)[C@@H](CC(C)C)NC(=O)[C@H](CCCN)NC(=O)[C@H](Cc3ccc(C(=O)O)cc3)NC(=O)[C@H](Cc3ccc(-c4ccccc4)cc3)NC2=O)cc1 [Compound 1830] ({CH2CO}-[Nva][Phe(4-COOH)]D[Phe(3-Me)]Y(Propargyl)[Bip][Phe(4-COOH)][Orn][dL][Dab][Cha]VEC[Dab]-NH2; thioether N-14)
14 | 8.64 | C#CCOc1ccc(C[C@@H]2NC(=O)[C@H](Cc3cccc(C)c3)NC(=O)[C@H](CC(=O)O)NC(=O)[C@H](Cc3ccc(OCC(=O)O)cc3)NC(=O)[C@H](CCCNC(=N)N)NC(=O)CSC[C@@H](C(=O)N[C@@H](CCN)C(N)=O)NC(=O)[C@H](CCC(=O)O)NC(=O)[C@H](C(C)C)NC(=O)[C@H](CC3CCCCC3)NC(=O)[C@H](CCN)NC(=O)[C@@H](CC(C)C)NC(=O)[C@H](CCCN)NC(=O)[C@H](Cc3ccc(OCC(=O)O)cc3)NC(=O)[C@H](Cc3ccc(-c4ccccc4)cc3)NC2=O)cc1 [Compound 1818] ({CH2CO}-RY(Carboxymethyl)D[Phe(3-Me)]Y(Propargyl)[Bip]Y(Carboxymethyl)[Orn][dL][Dab][Cha]VEC[Dab]-NH2; thioether N-14)
